Data published in PubChem BioAssay (NCI).
Values joined by “and” are separate entries in the source; they are usually repeats but may differ in a detail not shown here. Equal values may be shown once.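 Cells were grown in 96-well plates and exposed to each compound for 48 hours at five concentrations; endpoints were interpolated linearly between bracketing concentrations, or set to the highest concentration if not reached. GI50 marks 50% less growth. TGI marks complete inhibition of growth.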 Active and inactive are the calls of the source. Rule as the data show it: active = GI50 below about 0.43 µM; inactive = the rest.

Assays:
Test in all cases: NCI anticancer screen, dose series, 48 h
BT-549 breast = tested on: BT-549 breast
COLO 205 colon = tested on: COLO 205 colon
HCT-116 colon = tested on: HCT-116 colon
KM12 colon = tested on: KM12 colon
KM20L2 colon = tested on: KM20L2 colon
MOLT-4 leukemia = tested on: MOLT-4 leukemia
SF-295 CNS = tested on: SF-295 CNS
SK-MEL-28 melanoma = tested on: SK-MEL-28 melanoma
TK-10 renal = tested on: TK-10 renal

SMILES	GI50 (BT-549 breast)	TGI (BT-549 breast)	GI50 (COLO 205 colon)	GI50 (HCT-116 colon)	GI50 (KM12 colon)	TGI (KM12 colon)	outcome (KM20L2 colon)	GI50 (MOLT-4 leukemia)	GI50 (SF-295 CNS)	GI50 (SK-MEL-28 melanoma)	GI50 (TK-10 renal)	TGI (COLO 205 colon)	TGI (HCT-116 colon)	TGI (KM20L2 colon)	TGI (MOLT-4 leukemia)	TGI (SF-295 CNS)	TGI (SK-MEL-28 melanoma)	TGI (TK-10 renal)	GI50 (KM20L2 colon) [µM]
COC(C(=O)C(O)C(C)O)C1Cc2cc3cc(OC4CC(OC5CC(O)C(O)C(C)O5)C(O)C(C)O4)c(C)c(O)c3c(O)c2C(=O)C1OC1CC(OC2CC(O)C(OC3CC(C)(O)C(O)C(C)O3)C(C)O2)C(O)C(C)O1 (centres undefined)	0.015 µg/mL	0.0739 µg/mL	0.0112 µg/mL and 0.000702 µg/mL	0.0112 µg/mL and 0.015 µg/mL	0.0112 µg/mL and 0.000667 µg/mL	0.0428 µg/mL and 0.0723 µg/mL	inactive	0.0112 µg/mL and 0.00269 µg/mL	0.0185 µg/mL and 0.000389 µg/mL	0.0112 µg/mL and 0.000611 µg/mL	0.0252 µg/mL and 0.295 µg/mL	–	–	–	–	–	–	–	–
Cn1c2ccccc2c(=O)c2c(O)cc3c(c21)CC(C1(C)CO1)O3 (centres undefined)	–	4.5 µM	–	–	–	6.52 µM	–	–	–	–	–	19.7 µM	3.06 µM	31.8 µM	1.45 µM	39.2 µM	7.59 µM	42 µM	–
C=C1COC(O)(C2OCOC(C3CC(=O)NC(=O)C3)C2O)C1C (centres undefined)	0.0187 µM	0.0739 µM	0.00292 µM	0.00288 µM	0.00176 µM	0.0212 µM	–	0.00124 µM	0.00249 µM	0.00222 µM	0.00456 µM	0.0128 µM	0.0337 µM and 0.0335 µM	0.0281 µM and 0.0721 µM	0.00804 µM and 0.00522 µM	0.018 µM and 0.0423 µM	0.0377 µM	0.0539 µM and 0.0498 µM	–
C/C(=N\NC(=S)N1CCN(C2CCCCCC2)CC1)c1ccccn1	–	2.78 µM	–	< 0.001 µM	0.0229 µM	3.13 µM	–	< 0.001 µM	0.00302 µM	4.08 µM	0.42 µM	1.48 µM	1.65 µM	8.96 µM and 2.07 µM	1.52 µM and 3.72 µM	5.67 µM and 2.91 µM	2.25 µM	3.34 µM	3.83
Cc1cc(Cl)ccc1NC(=O)CCCC(=O)C1CCC/C1=N\NC(=O)CC#N (centres undefined)	–	–	–	–	–	> 100 µM	–	–	–	–	–	> 100 µM	> 100 µM	> 100 µM	> 100 µM	> 100 µM	> 100 µM	> 100 µM	–
C1COCCOCCOCCOCCOCCO1.[Cl][Sn]([Cl])([c]1ccccc1)[c]1ccccc1	–	–	1.83 µM	5.53 µM	12.6 µM	26.4 µM	–	3.21 µM	16.1 µM	2 µM	2.78 µM	4.34 µM	17.3 µM	18.2 µM	14.5 µM	30 µM	4.19 µM	7.01 µM	7.02
O=C(N/C(=C\c1ccc(/C=C(\NC(=O)c2ccccc2)c2nc3cc(Cl)ccc3[nH]2)cc1)c1nc2cc(Cl)ccc2[nH]1)c1ccccc1	–	–	–	–	–	88.7 µM	–	–	–	–	–	51.3 µM	66.2 µM	55.5 µM	39.8 µM	> 100 µM	53.8 µM	79 µM	–
Cc1cc2nc3ccc(=[N+](C)C)cc-3sc2cc1N	2.75 µM and 2.09 µM	19.7 µM and 25.2 µM and 18.2 µM	0.745 µM and 0.309 µM	0.226 µM and 0.232 µM	0.401 µM and 0.771 µM	2.28 µM and 18.1 µM and 2.95 µM	–	0.237 µM and 0.363 µM	0.473 µM and 0.554 µM	1.64 µM and 1.65 µM	2.65 µM and 2.75 µM	2.19 µM and 9.28 µM and 0.94 µM	1.2 µM and 5.03 µM and 0.98 µM	41.5 µM	–	5.27 µM and 14.5 µM and 4.83 µM	4.65 µM and 27 µM and 3.56 µM	7.01 µM and 36.8 µM and 8.19 µM	–
COc1cccc(NC(=O)C(C)(C)C)c1SSc1c(NC(=O)C(C)(C)C)cccc1OC	–	–	–	–	–	> 95.5 µM	–	–	–	–	–	69.9 µM	42.8 µM	> 100 µM	> 70.6 µM	> 100 µM	> 57.9 µM	> 100 µM	–
